Source: the supplement of paper PMC10307832

Legend:
Assay in all cases: relative viability (nuclei count vs DMSO), 5 days (fraction); higher = more cells survive
[1] = compound: CC[C@@H](C)CNCC(=O)N1CCC2=C([C@@H]1COC3=CC=CC(=C3)C)C=CS2 [RU-SKI 43] + CCNC(=O)c1noc(-c2cc(C(C)C)c(O)cc2O)c1-c1ccc(CN2CCOCC2)cc1 [Luminespib] (partner 0.01 µM)
In short: (§1)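 Lung cancer cell lines in 1536-well plates got either a single drug or a fixed anchor-drug dose together with five library-drug doses (not always all listed) in √10 steps, by pin tool, on the day after seeding. Nuclei were counted after 5 days, and relative viability is the treated-to-vehicle ratio of nuclei counts. Values are medians of duplicate plates.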

[2] = compound: CCc1c2c(nc3ccc(OC(=O)N4CCC(N5CCCCC5)CC4)cc13)-c1cc3c(c(=O)n1C2)COC(=O)[C@]3(O)CC [Irinotecan] + CS(=O)(=O)CCNCc1ccc(-c2ccc3ncnc(Nc4ccc(OCc5cccc(F)c5)c(Cl)c4)c3c2)o1 [Lapatinib] (partner 2 µM)
In short: as §1

[3] = compound: CCc1c2c(nc3ccc(OC(=O)N4CCC(N5CCCCC5)CC4)cc13)-c1cc3c(c(=O)n1C2)COC(=O)[C@]3(O)CC [Irinotecan] + Nc1nc2[nH]cc(CCc3ccc(C(=O)N[C@@H](CCC(=O)O)C(=O)O)cc3)c2c(=O)[nH]1 [Pemetrexed] (partner 0.2 µM)
In short: as §1

[4] = compound: Cn1cc(-c2cnc3ccc4ccc(CS(=O)(=O)NCc5ccccn5)cc4c(=O)c3c2)cn1 [MK-8033] + Nc1ncn([C@H]2C[C@H](O)[C@@H](CO)O2)c(=O)n1 [Decitabine] (partner 2 µM)
In short: as §1

For UMC-11, the relative viability ([1]; first compound 0.1 µM) was 1.13, the relative viability ([1]; first compound 0.3162 µM) was 1.29 and the relative viability ([1]; first compound 1 µM) was 1. It also gave a relative viability ([1]; first compound 3.162 µM) of 1.04, a relative viability ([1]; first compound 10 µM) of 1.09 and a relative viability ([2]; first compound 0.6325 µM) of 0.354. The relative viability ([2]; first compound 2 µM) was 0.452, the relative viability ([2]; first compound 6.325 µM) was 0.259 and the relative viability ([2]; first compound 20 µM) was 0.2. The relative viability ([3]; first compound 0.6325 µM) was 0.46, the relative viability ([3]; first compound 2 µM) was 0.436 and the relative viability ([3]; first compound 6.325 µM) was 0.288. For the same cell line, the relative viability ([3]; first compound 20 µM) was 0.228, the relative viability ([4]; first compound 0.02 µM) was 0.593 and the relative viability ([4]; first compound 0.06325 µM) was 0.424. The relative viability ([4]; first compound 0.2 µM) was 0.59, the relative viability ([4]; first compound 0.6325 µM) was 0.714 and the relative viability ([4]; first compound 2 µM) was 0.612.
